Results from article PMC9682524, “Investigation of the Interaction between Human Serum Albumin and Branched Short-Chain Perfluoroalkyl Compounds” (Chemical Research in Toxicology, 2022).
Several values for one entry are separate records, joined by “and”; a condition that tells them apart may be missing. Equal values may be shown once. Read-outs that look alike come from different tables or passages of the source.

Key:
[1] = target: T1, human serum albumin (hSA) (Homo sapiens, UniProt P02768); assay: Isothermal titration calorimetry (ITC) of PFAS binding to defatted hSA
T1 construct: purchased Albumin Bioscience (Huntsville, AL, USA)
Experimental: (§1) ITC experiments were performed using a Microcal PEAQ-ITC instrument (Malvern Panalytical, Malvern, UK). Both dhSA (110 μM) and ligands (HPFO-DA, C6O4, PFHxA, Ibu, and War, 4 mM solutions) were dissolved in 50 mM NaPi, 100 mM NaCl, pH 7.4. Only in the case of War, 2.5% v/v DMSO was added to the buffer to improve its solubility. All working solutions were properly degassed. Titrations of dhSA with ligands were carried out at different temperatures (298 and 310 K). In each experiment, an initial 0.4 μL injection (excluded from subsequent data analysis) was followed by 25 independent injections of 1.5 μL with a stirring rate of 750 rpm to ensure rapid mixing. A 120 s interval between injections was applied to guarantee the equilibrium at each titration point. Blank experiments (ligands against buffer) were carried out for each ligand and subtracted to corresponding titrations in order to screen dilution heat contributions. Competition experiments were conducted by adding saturating concentrations of albumin-binding drugs (either 250 μM Ibu or 200 μM War) to dhSA in the measure cell and titrating each PFAS (4 mM) with the aforementioned instrumental parameters. Data were analyzed using the MicroCal PEAQ-ITC Evaluation software (Malvern Panalytical, Malvern, UK). Integrated heat signals were fitted to “one set of sites” (C6O4, PFHxA), “two sets of sites” (PFOA), or “sequential” (HPFO-DA) binding models. Values for the binding affinity constant (KA = 1/KD) and enthalpy change (ΔH), together with the stoichiometry of each PFAS-dhSA reaction, were obtained from curve fitting. Free energy and the entropy change (ΔS) were calculated from the Gibbs free energy (ΔG) relationships: ΔG = ΔH – TΔS = −RT ln(KA).

[2] = target: T1, human serum albumin (hSA); assay: Competitive ITC with hSA saturated with ibuprofen or warfarin; format: binding; settings: for titration profile to hSA saturated with War: 200 μM War; for titration profile to hSA saturated with War / titration profile to Ibu-saturated hSA: PFAS 4 mM titrant; for titration profile to Ibu-saturated hSA: 250 μM Ibu; for preferably occupied hSA binding sites: concluded from stoichiometry and competition with Ibu
Experimental: as §1
These include ibuprofen (Ibu) and warfarin (War), two well-characterized molecules known to share the same fatty acid-binding sites (FA4 and FA6 for Ibu, FA7 for War) with long-chain PFASs (Figure 2a).[45] Again, the short-chain perfluoroalkyl compound PFHxA was included as the control. […] The results are consistent with those previously reported that identified the ibuprofen-binding pocket as a preferable cavity to lodge polyfluoroalkyl compounds.[45]

[3] = target: T1, human serum albumin (hSA); assay: Crystal structure of hSA in complex with HPFO-DA and Myr (PDB 7Z57); format: binding; settings: ternary complex hSA-HPFO-DA-Myr, 1:20:5 molar ratio
Experimental: Crystallization trials of dhSA in complex with HPFO-DA, C6O4 and sodium myristate (Myr) were carried out at 285 K in an MRC maxi 48-well crystallization plate (Hampton Research, Aliso Viejo, CA, USA) using the sitting-drop vapor-diffusion method and the Morpheus MD1–46 protein crystallization screen kit (Molecular Dimensions Ltd., Catcliffe, UK). Droplets of 1.6 μL volume (0.8 μL of protein complex and 0.8 μL of reservoir solution) were set up using an Oryx 8 crystallization robot (Douglas Instruments Ltd., Catcliffe, UK) and equilibrated against 120 μL reservoir solution. In all the cases, best crystals were obtained by streak- or micro-seeding and left for 5–7 days. Crystals of dhSA (1 mM) incubated with a 20-fold molar excess of HPFO-DA (20 mM) and a fivefold molar excess of Myr (5 mM) were obtained using the following precipitant agents: 50 mM bicine, 50 mM Trizma base, 30 mM sodium fluoride, 30 mM sodium bromide, 30 mM sodium iodide, 12.5% v/v MPD, 12.5% w/v PEG 1000, and 12.5% w/v PEG 3350 pH 8.5. […]
The structure was solved by molecular replacement with software PHASER[49] using as a template the model 7AAI.[45] […] Intramolecular and intermolecular hydrogen bond interactions were analyzed by PROFUNC,[53] […]

[4] = environmentally exposed human populations; cited from earlier work
[5] = 310 K, sequential binding, first binding event
[6] = 310 K, sequential binding, second binding event
[7] = 298 K, two sets of sites, high-affinity sites
[8] = 298 K, two sets of sites, low-affinity sites
[9] = 310 K, two sets of sites, high-affinity sites
[10] = 310 K, two sets of sites, low-affinity sites

T1 sequence (P02768 25-609): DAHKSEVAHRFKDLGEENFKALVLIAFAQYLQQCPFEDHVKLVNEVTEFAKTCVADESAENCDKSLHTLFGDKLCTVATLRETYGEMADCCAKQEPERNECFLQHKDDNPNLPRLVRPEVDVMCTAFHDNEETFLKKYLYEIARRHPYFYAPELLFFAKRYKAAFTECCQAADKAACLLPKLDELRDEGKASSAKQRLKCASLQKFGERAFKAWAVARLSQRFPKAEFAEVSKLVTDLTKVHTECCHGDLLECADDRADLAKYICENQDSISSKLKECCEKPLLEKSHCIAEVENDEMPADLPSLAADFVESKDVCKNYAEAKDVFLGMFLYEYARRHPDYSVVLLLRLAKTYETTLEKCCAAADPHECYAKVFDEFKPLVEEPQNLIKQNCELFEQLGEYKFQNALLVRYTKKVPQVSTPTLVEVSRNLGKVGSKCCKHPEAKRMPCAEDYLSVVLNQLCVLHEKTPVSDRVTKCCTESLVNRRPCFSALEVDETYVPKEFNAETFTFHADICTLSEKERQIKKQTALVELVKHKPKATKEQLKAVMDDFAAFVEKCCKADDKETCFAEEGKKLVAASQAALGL

| Structure (SMILES) | n (stoichiometry) ([1]; 298 K, one set of sites) | ΔG ([1]; 298 K, one set of sites) | ΔH ([1]; 298 K, one set of sites) | n (stoichiometry) ([1]; 310 K, one set of sites) | ΔG ([1]; 310 K, one set of sites) | ΔH ([1]; 310 K, one set of sites) | –TΔS ([1]; 310 K, one set of sites) [kJ/mol] | Kd ([1]; KD, 298 K, one set of sites) [µM] | Kd ([1]; KD, 310 K, one set of sites) [µM] | titration profile to hSA saturated with War [2] | titration profile to Ibu-saturated hSA [2] | preferably occupied hSA binding sites [2] | number of distinct binding sites occupied in crystal structure [3] | average half-life for serum elimination [4] | further results |
| --- | --- | --- | --- | --- | --- | --- | --- | --- | --- | --- | --- | --- | --- | --- | --- |
| O=C(O)C(F)(F)OC1(F)OC(F)(F)OC1(F)OC(F)(F)F (stereo not drawn) [C6O4, perfluoro ([5-methoxy-1,3-dioxolan-4-yl]oxy) acetic acid] | 1.6 ± 0.2 | –32.10 kJ/mol | –21.4 ± 1.4 kJ/mol | 1.5 ± 0.3 | –31.70 kJ/mol | –25.8 ± 4.2 kJ/mol | 1.7 | 2.4 ± 0.1 | 5.4 ± 2.1 | comparable to that of hSA in the absence of competitive drug | nearly saturated flat curve | FA4 and/or FA6 sites |  |  | –TΔS ([1]; 298 K, one set of sites): –10.7 kJ/mol |
| O=C(O)C(F)(OC(F)(F)C(F)(F)C(F)(F)F)C(F)(F)F (stereo not drawn) [HPFO-DA, 2,3,3,3-tetrafluoro-2-(heptafluoropropoxy) propanoic acid] |  |  |  |  |  |  |  |  |  | comparable to that of hSA in the absence of competitive drug | nearly saturated flat curve | FA4 and/or FA6 sites | two |  | fold lower binding affinity (KD) compared to PFOA high-affinity sites ([1]; 298 K): ~47 fold; ΔH2 ([1]; 298 K, sequential binding, second binding event): 33.8 kJ/mol and 33.8 ± 1.9 kJ/mol; ΔH1 [1, 5]: –23.2 ± 3.4 kJ/mol; –TΔS1 [1, 5]: –6.54 kJ/mol; ΔH2 [1, 6]: 28.2 ± 2.8 kJ/mol; –TΔS2 [1, 6]: –55.4 kJ/mol; Kd ([1]; KD1, 298 K, sequential binding, first binding event): 19 ± 1.3 µM; Kd ([1]; KD1, 310 K, sequential binding, first binding event): 9.9 ± 2.3 µM; Kd ([1]; KD2, 310 K, sequential binding, second binding event): 27 ± 8.1 µM; Kd ([1]; human, pH 7.4, KD2, 298 K, sequential binding, second binding event): > 80 µM; Kd ([1]; read-out: KD2, 298 K, sequential binding, second binding event): 84.2 ± 14.6 µM |
| CCCCCCCCCCCCCC(=O)O [Myr, sodium myristate] |  |  |  |  |  |  |  |  |  |  |  |  | four |  |  |
| O=C(O)C(F)(F)C(F)(F)C(F)(F)C(F)(F)C(F)(F)F [PFHxA, Perfluorohexanoic acid] | 1.02 ± 0.05 | –30.60 kJ/mol | –34.1 ± 7.40 kJ/mol | 1.03 ± 0.05 | –31.70 kJ/mol | –39.2 ± 2.00 kJ/mol | 7.70 | 4.5 ± 2.1 | 5.9 ± 0.7 | comparable to that of hSA in the absence of competitive drug | nearly saturated flat curve | FA4 and/or FA6 sites |  |  |  |
| O=C(O)C(F)(F)C(F)(F)C(F)(F)C(F)(F)C(F)(F)C(F)(F)C(F)(F)F [PFOA, perfluorooctanoic acid] |  |  |  |  |  |  |  |  |  |  |  |  |  | 1–5 years | n (stoichiometry) [1, 7]: 0.89 ± 0.30; ΔG [1, 7]: –36.10 kJ/mol; –TΔS [1, 7]: –17.70 kJ/mol; ΔG [1, 8]: –26.60 kJ/mol; –TΔS [1, 8]: –28.2 kJ/mol; n (stoichiometry) [1, 9]: 0.95 ± 0.2; ΔG [1, 9]: –38.10 kJ/mol; ΔH [1, 9]: –16.5 ± 1.9 kJ/mol; –TΔS [1, 9]: –21.6 kJ/mol; n (stoichiometry) [1, 10]: 9.5 ± 0.20; ΔG [1, 10]: –29.10 kJ/mol; ΔH [1, 10]: –2.26 ± 0.75 kJ/mol; –TΔS [1, 10]: –31.30 kJ/mol; Kd ([1]; KD, 298 K, two sets of sites, low-affinity sites): 29.7 ± 1.7 µM; Kd ([1]; KD, 310 K, two sets of sites, low-affinity sites): 46 ± 2 µM; Kd ([1]; human, pH 7.4, KD, 298 K, two sets of sites, high-affinity sites): 0.4 ± 0.01 µM; Kd ([1]; human, pH 7.4, KD, 310 K, two sets of sites, high-affinity sites): 39.3 ± 0.4 µM |
| O=S(=O)(O)C(F)(F)C(F)(F)C(F)(F)C(F)(F)C(F)(F)C(F)(F)C(F)(F)C(F)(F)F [PFOS, perfluorooctanesulfonic acid] |  |  |  |  |  |  |  |  |  |  |  |  |  | 1–5 years |  |
